These results are taken from patent US20260265329A1, “POLYPEPTIDE AND DERIVATIVE THEREOF, COMPOSITION, AND USE THEREOF” (HANGZHOU SCIWIND BIOSCIENCES CO., LTD., priority 2023, published 2026).

Starred links: 1 amine or outer side, 2 acyl side, 3 side chain; linkers in the order of their positions; H or OH if unused. Non-standard residues stand in square brackets, D forms with d. Residues, ends and D or L forms follow the SMILES beside them. *: point of attachment. C20 diacid = O=C(O)CCCCCCCCCCCCCCCCCCC(=O)*; γGlu = O=C(O)[C@H](CCC(=O)[*:2])N[*:1]; Hyp = O=C(O)[C@@H]1C[C@@H](O)CN1

The nature of data set [1]: Efficacy assay in SD rats, dose-dependent study (Example 5). It counts as in vivo. Particulars: for Body weight and food intake reduction compared with Cagrilintide: equivalent dosage; for Effect on body weight / Effect on food intake: single subcutaneous dose 10, 30, 100 nmol/kg (FIGS. 3A-3D). How it is done:
SPF male SD rats (7-8 weeks, 220-230 g) were employed in this study after health inspection and quarantine. The experimental animals were exposed to a room temperature of 20° C.-23° C. and a relative humidity of 40%-50%, and were provided with Co60 mouse reproduction feed 1035 and purified water supplied with water feeding bottles for free intake throughout the health inspection and quarantine and the study. […] Using a single dose administered via subcutaneous injection, the study lasted for a total of 6 days with the day of administration designated as Day 1/Time 0 (TO), wherein on Day 0, the initial body weight of the animals were recorded and the initial feed was added, and on Day 1-Day 5, the body weight of the studied animals as well as the remaining food were recorded daily for calculating the percentage of weight change and the amount of food intake, any anomalies during which were required to be recorded and reported. During the study, the rats were in good condition and no anomaly was observed. Weight change=(BWTn−BWT0)/BWT0* 100%, wherein BW represented the value of body weight, and T0 and Tn represented the time points of dosing and n hours post dose respectively. Dots in the figures were represented utilizing mean±standard error of the mean (SEM). Accumulated food intake was the total amount of food intake for each of the animals prior to a certain time point post dose.

Data set [2] can be described thus: Efficacy assay in DIO SD rats, dose-dependent study (Example 6). The format is in vivo. Particulars: for Body weight and food intake reduction compared with Cagrilintide: equivalent dosage; for Effect on body weight / Effect on food intake: subcutaneous once a day for 10 days, 3 and 10 nmol/kg (FIGS. 4A, 4B). As for the experimental part:
SPF male DIO SD rats (36-37 weeks, […], fed with high-fat diet for 34 weeks from 3-week age on) were employed in this study. The experimental animals were exposed to a room temperature of 20° C.-23° C. and a relative humidity of 40%-50%, and were provided with high-fat diet D12492 and purified water supplied with water feeding bottles for free intake throughout the construction of the DIO animal model and the study. Based on their mean body weight, the animals were assigned to 6 groups designated as B1-B6 (n=5). Administration via subcutaneous injection was conducted once a day for 10 continuous days, wherein the first day of administration was designated as Day 1 (D1), and on Day 0, the initial body weight of the animals were recorded and the initial feed was added, and on Day 1-Day 11, the body weight of the studied animals as well as the remaining food were recorded daily for calculating the percentage of weight change and the amount of food intake, any anomalies during which were required to be recorded and reported. During the study, the rats were in good condition and no anomaly was observed. Weight change=(BWDn−BWD1)/BWD1*100%, wherein BW represented the value of body weight, and D1 and Dn represented the first and Nth days of administration respectively. Dots in the figures were represented utilizing mean±standard error of the mean (SEM). Accumulated food intake was the total amount of food intake for animals of each group prior to a certain time point post dose.

The target of another data set is T1, human amylin receptors (Homo sapiens, UniProt O60896+P30988).
T1 construct: host or cells: CHO-K1/Ga15/AMY3 cells, further stably transfected with a CRE-luciferase plasmid
T1 sequence (P30988 25-474): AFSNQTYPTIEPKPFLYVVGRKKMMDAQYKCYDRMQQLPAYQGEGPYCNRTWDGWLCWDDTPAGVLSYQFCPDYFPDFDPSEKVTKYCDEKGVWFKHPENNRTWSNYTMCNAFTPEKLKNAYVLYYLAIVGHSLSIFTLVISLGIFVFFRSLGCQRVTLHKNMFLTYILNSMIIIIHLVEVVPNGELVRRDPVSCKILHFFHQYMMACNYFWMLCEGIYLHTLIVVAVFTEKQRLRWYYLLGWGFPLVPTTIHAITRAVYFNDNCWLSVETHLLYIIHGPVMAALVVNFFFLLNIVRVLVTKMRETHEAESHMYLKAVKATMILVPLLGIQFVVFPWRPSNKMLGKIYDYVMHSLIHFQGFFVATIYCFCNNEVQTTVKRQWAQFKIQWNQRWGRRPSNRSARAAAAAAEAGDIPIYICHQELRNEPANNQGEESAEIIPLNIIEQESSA
T1 sequence (O60896 24-148 partner): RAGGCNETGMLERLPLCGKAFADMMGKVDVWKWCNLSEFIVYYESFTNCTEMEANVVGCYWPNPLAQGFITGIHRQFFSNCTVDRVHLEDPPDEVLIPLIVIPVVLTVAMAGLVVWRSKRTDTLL
Description: Luciferase assay in stably transfected amylin receptor/CRE-luc CHO cell line. It counts as cell-based. Particulars: for Relative activity: EC50 ratio of Cagrilintide to the compound, Cagrilintide 100%; for EC50: amylin receptor/CRE-luc CHO cells, 24 hours incubation, luminescence.

A further data set can be described thus: in vivo. More on the design: species or system SD rats. Particulars: male, SD, rat, sc, 1 mg/kg. How it is done:
The animals received a subcutaneous injection of corresponding compounds for testing (1 mg/kg and 5 ml/kg), and the day of administration was designated as D1. The whole blood of the animals was collected pre dose (-10 min) on D1 and post dose at D1-2h, D1-4h, D1-6h, D2-24h, D3-48h, D4-72h, D5-96h, and D6-120 h and was processed into plasma (using EDTA for anticoagulation). Liquid chromatography-tandem mass spectrometry (LC-MS/MS) was used to detect the concentration of drug molecules in the plasma, and GraphPad Prism 10 was utilized to plot a concentration-time curve for the drugs whose pharmacokinetic parameters including Cmax, Tmax, T1/2, AUC, and MRT were then calculated with PKSolver.

The nature of data set [3]: Heat accelerated stability assay, 40° C., detection on 10 d and 20 d. Particulars: 1 mg/mL, pH about 7.4, 40° C. The format is physicochemical. An outline of the steps: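 Polypeptide derivatives at 1 mg/mL with sodium dihydrogen phosphate (1.42 mg/mL) in water, pH ~7.4, sterile-filtered and held at 40° C. Sampled at 10 d and 20 d, centrifuged, and supernatant analysed by HPLC (214 nm, 25° C., phosphate pH 5.8/ACN gradient) for concentration and purity.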

The conditions of data set [4]: background statement; cited from earlier work.

As to `CC[C@H](C)[C@H](NC(=O)[C@@H]1CCCN1C(=O)[C@H](CCCCN)NC(=O)[C@H](CC(C)C)NC(=O)[C@H](CO)NC(=O)[C@H](CO)NC(=O)[C@H](CO)NC(=O)[C@H](CO)NC(=O)[C@H](Cc1c[nH]cn1)NC(=O)[C@H](CCCNC(=N)N)NC(=O)[C@H](CC(C)C)NC(=O)[C@H](Cc1ccccc1)NC(=O)[C@H](CC(=O)O)NC(=O)[C@H](C)NC(=O)[C@H](CC(C)C)NC(=O)[C@H](CCCNC(=N)N)NC(=O)[C@H](CCC(N)=O)NC(=O)[C@@H](NC(=O)[C@H](C)NC(=O)[C@H](C)NC(=O)[C@@H](NC(=O)[C@H](CO)NC(=O)[C@H](CC(C)C)NC(=O)[C@H](CCC(N)=O)NC(=O)[C@H](CO)NC(=O)[C@H](C)NC(=O)CC[C@H](NC(=O)CCCCCCCCCCCCCCCCCCC(=O)O)C(=O)O)[C@@H](C)O)[C@@H](C)O)C(=O)N[C@@H](CC(C)C)C(=O)N1CCC[C@H]1C(=O)N1CCC[C@H]1C(=O)N[C@H](C(=O)N[C@@H](CC(N)=O)C(=O)N[C@H](C(=O)NCC(=O)N[C@@H](CO)C(=O)N[C@@H](CC(N)=O)C(=O)N[C@H](C(=O)N1C[C@H](O)C[C@H]1C(N)=O)[C@@H](C)O)C(C)C)[C@@H](C)O` [M43] ({C20 diacid-γGlu}-ASQLSTAATQRLADFLRHSSSSLKPILPPTNVGSNT[Hyp]-NH2), in data set [1], the “Body weight and food intake reduction compared with Cagrilintide” value (shortened to “Body weight and food intake reduction”) was “performed better than Cagrilintide at the equivalent dosage”; the “Effect on body weight” value was “dose-dependently reduced”; the “Effect on food intake” value is given as “dose-dependently reduced”. In addition, in data set [2], the “Body weight and food intake reduction” value was “performed better than Cagrilintide at the equivalent dosage”; the “Effect on body weight” value is given as “dose-dependently reduced”; the “Effect on food intake” value is on record as “dose-dependently reduced”. Further, on human amylin receptors, the Relative activity came out at 180% and the EC50 (in general, the concentration needed to bring the measured effect to its halfway point) was 0.05 nM. Further, in the data set “in vivo”, the AUC(0-inf) (usually total exposure, with the tail of the curve extrapolated) came out at 217 µg·h/mL; the AUC(0-t) (as a rule, the area under the concentration-time curve up to a stated or last time point) stood at 214 µg·h/mL; the highest level (Cmax) was 4930 ng/mL; the mean residence time (MRT inf) – broadly, the average time that molecules of a dose stay in the body – was found to be 39 h. Also, in the data set “in vivo”, the Tmax (commonly the time at which the peak concentration occurs) was determined as 24 h and the half-life (as a rule, the time in which the quantity being followed falls by half) is 21.3 h. Also, in data set [3], the “Reduction in purity, 10 d” value was determined as 3.6% and the “Reduction in purity, 20 d” value came to 6.6%.
`CC[C@H](C)[C@H](NC(=O)[C@@H]1CCCN1C(=O)[C@H](CCCCN)NC(=O)[C@H](CC(C)C)NC(=O)[C@H](CCC(N)=O)NC(=O)[C@H](CCC(N)=O)NC(=O)[C@H](CO)NC(=O)[C@H](CO)NC(=O)[C@H](Cc1c[nH]cn1)NC(=O)[C@H](CCCNC(=N)N)NC(=O)[C@H](CC(C)C)NC(=O)[C@H](Cc1ccccc1)NC(=O)[C@H](CC(=O)O)NC(=O)[C@H](C)NC(=O)[C@H](CC(C)C)NC(=O)[C@H](CCCNC(=N)N)NC(=O)[C@H](CCC(N)=O)NC(=O)[C@@H](NC(=O)[C@H](C)NC(=O)[C@H](C)NC(=O)[C@@H](NC(=O)[C@H](CO)NC(=O)[C@H](CC(C)C)NC(=O)[C@H](CCC(N)=O)NC(=O)[C@H](CO)NC(=O)[C@H](C)NC(=O)CC[C@H](NC(=O)CCCCCCCCCCCCCCCCCCC(=O)O)C(=O)O)[C@@H](C)O)[C@@H](C)O)C(=O)N[C@@H](CC(C)C)C(=O)N1CCC[C@H]1C(=O)N1CCC[C@H]1C(=O)N[C@H](C(=O)N[C@@H](CC(N)=O)C(=O)N[C@H](C(=O)NCC(=O)N[C@@H](CO)C(=O)N[C@@H](CC(N)=O)C(=O)N[C@H](C(=O)N1C[C@H](O)C[C@H]1C(N)=O)[C@@H](C)O)C(C)C)[C@@H](C)O` [M41] ({C20 diacid-γGlu}-ASQLSTAATQRLADFLRHSSQQLKPILPPTNVGSNT[Hyp]-NH2): in data set [1], the “Body weight and food intake reduction” value is on record as “performed better than Cagrilintide at the equivalent dosage”; the “Effect on body weight” value is listed as “dose-dependently reduced”; the “Effect on food intake” value is “dose-dependently reduced”. Also, in data set [2], the “Body weight and food intake reduction” value is on record as “performed better than Cagrilintide at the equivalent dosage”; the “Effect on body weight” value is “dose-dependently reduced”; the “Effect on food intake” value was “dose-dependently reduced”. Further, on human amylin receptors, the Relative activity came to 113% and it took 0.08 nM to reach a half-maximal effect (EC50). Besides, in “in vivo”, the area under the curve AUC(0-inf) came to 257 µg·h/mL, the area under the curve AUC(0-t) stood at 250 µg·h/mL, the highest level (Cmax) was 4780 ng/mL and the MRT inf was found to be 45.9 h. In the data set “in vivo”, the time of peak concentration (Tmax) was determined as 24 h and the half-life was 23.7 h. In addition, in data set [3], the “Reduction in purity, 10 d” value stood at 2.93% and the “Reduction in purity, 20 d” value was found to be 4.26%.
On to `CC[C@H](C)[C@H](NC(=O)[C@@H]1CCCN1C(=O)CNC(=O)[C@H](Cc1ccccc1)NC(=O)[C@H](CC(N)=O)NC(=O)[C@H](CC(N)=O)NC(=O)[C@H](CO)NC(=O)[C@H](CO)NC(=O)[C@H](Cc1c[nH]cn1)NC(=O)[C@@H](NC(=O)[C@H](CC(C)C)NC(=O)[C@H](Cc1ccccc1)NC(=O)[C@H](CC(N)=O)NC(=O)[C@H](C)NC(=O)[C@H](CC(C)C)NC(=O)[C@H](CCCNC(=N)N)NC(=O)[C@H](CCC(N)=O)NC(=O)[C@@H](NC(=O)[C@H](C)NC(=O)[C@@H]1CSSC[C@H](NC(=O)[C@@H](N)CCCCN)C(=O)N[C@@H](CC(N)=O)C(=O)N[C@@H]([C@@H](C)O)C(=O)N[C@@H](C)C(=O)N[C@@H]([C@@H](C)O)C(=O)N1)[C@@H](C)O)C(C)C)C(=O)N[C@@H](CC(C)C)C(=O)N1CCC[C@H]1C(=O)N1CCC[C@H]1C(=O)N[C@H](C(=O)N[C@@H](CC(N)=O)C(=O)N[C@H](C(=O)NCC(=O)N[C@@H](CO)C(=O)N[C@@H](CC(N)=O)C(=O)N[C@H](C(=O)N[C@@H](Cc1ccc(O)cc1)C(N)=O)[C@@H](C)O)C(C)C)[C@@H](C)O` [Pramlintide], for which the fibrillation entry in data set [4] was “fibrillates at pH 7”.
